Data on two compounds can be found in PMC11083769, “Characterization and pharmacokinetics of cinnamon and star anise compound essential oil pellets prepared via centrifugal granulation technology” (BMC Veterinary Research, 2024).

Converted amounts (≈) assume the structure as drawn. Marks after values point to notes of the source that are not given here.

The MIC is the smallest concentration in the dilution series that meets the test's criterion for growth inhibition.

The subject of series [1] is Staphylococcus aureus Newman strain. Set-up: method as in PMID 32185411. Particulars: cited from earlier work.
A short description of series [2]: Pharmacokinetics of compound essential oil pellets in pig model. Format: in vivo. The following applies: single dose, n = 6. From the text:
Six healthy Landrace × Large White hybrid pigs were randomly divided into three groups for pharmacokinetic experiments and were purchased from JuCong Agriculture, Nanning, Guangxi. During the adaptation period, the temperature of the breeding environment was 18–25℃, the relative humidity was 50–65%, and commercial feed and water free of antibiotics and target drugs were freely available to the pigs housed individually in six pig pens. After the experiment, the pigs were released.
After one week in the experimental setting, the pigs were labelled with numbers 1–6, randomly divided into 3 groups, and weighed before the experiment. […] Compound essential oil pellets were orally administered at three different doses of 50, 100 and 200 mg/kg. Three cycles of crossover trials were performed with 6 pigs, with each cycle separated by 7 days. 5 mL of blood was collected from the anterior vena cava at different time points after administration, centrifuged at 3000 r/min for 10 min, after which the plasma was separated. The drug concentration in the plasma was detected by GC‒MS/MS after pretreatment.
The average drug-time curve of each group was drawn. WinNonlin version 5.2.1 was used to calculate the pharmacokinetic parameters.
The compound essential oil pellet concentration was measured using GC‒MS/MS. The chromatographic conditions were as follows. A PEG-20 M column (30 m × 0.32 mm, 0.25 μm) was used. The temperature was increased from 90 ℃ to 160 ℃ at a heating rate of 10 ℃/min, held for 5 min, further increased from 160 ℃ to 280 ℃ at a heating rate of 20 ℃/min and held for 2 min.

The mark [3] stands for this setting: oral compound essential oil pellets 50 mg/kg.
The mark [4] stands for this setting: oral compound essential oil pellets 100 mg/kg.
The mark [5] stands for this setting: oral compound essential oil pellets 200 mg/kg.

Turning to `C/C=C/c1ccc(OC)cc1` [trans-anethole, Trans-anethole], in series [1], the MIC was 49.4 mg/mL (≈ 333 mM).
Regarding `O=C/C=C/c1ccccc1` [cinnamaldehyde, Cinnamaldehyde], in series [2] (setting [3]), the “AUC0−∞ of plasma cinnamaldehyde” value is 1433.11 ± 21.30^a h·µg/L, the “CL of plasma cinnamaldehyde” value is recorded as 18.69 ± 1.81^ac L/h/kg, the “Cmax of plasma cinnamaldehyde” value is 58.81 ± 6.16^a µg/L and the “MRT0−∞ of plasma cinnamaldehyde” value is recorded as 20.96 ± 0.21^a h. In series [2] (setting [3]), the “T1/2 of plasma cinnamaldehyde” value is listed as 14.52 ± 0.14^a h, the “Tmax of plasma cinnamaldehyde” value came to 2.00 h and the “Vz of plasma cinnamaldehyde” value is 1205.24 ± 149.37^ab L/kg. For the same compound, in series [2] (setting [4]), the “AUC0−∞ of plasma cinnamaldehyde” value was 467.05 ± 141.28^d h·µg/L, the “CL of plasma cinnamaldehyde” value is 142.48 ± 40.58^d L/h/kg, the “Cmax of plasma cinnamaldehyde” value is listed as 37.57 ± 5.56^d µg/L and the “MRT0−∞ of plasma cinnamaldehyde” value is 17.62 ± 1.84^d h. For the same compound, in series [2] (setting [4]), the “T1/2 of plasma cinnamaldehyde” value is given as 12.21 ± 1.27^d h, the “Tmax of plasma cinnamaldehyde” value is 2.00 h and the “Vz of plasma cinnamaldehyde” value is listed as 7671.46 ± 1809.86^d L/kg. In series [2] (setting [5]), the “AUC0−∞ of plasma cinnamaldehyde” value came out at 1653.25 ± 295.40 µg·h/L, the “CL of plasma cinnamaldehyde” value amounted to 56.85 ± 15.32 L/h/kg, the “Cmax of plasma cinnamaldehyde” value is on record as 64.18 ± 2.33 µg/L and the “MRT0−∞ of plasma cinnamaldehyde” value is on record as 20.68 ± 0.61 h. Besides, in series [2] (setting [5]), the “T1/2 of plasma cinnamaldehyde” value stood at 14.33 ± 0.42 h, the “Tmax of plasma cinnamaldehyde” value turned out to be 2.00 h and the “Vz of plasma cinnamaldehyde” value is recorded as 4593.67 ± 625.29 L/kg.
